For one assay, the system named is MTSs of MCF-7 cell line. Kind of assay: Basic [18F]FDG uptake experiments in MTS (competition, inhibition, insulin). It counts as cell-based, human. Here is the method:
(§1) • a. Cells of the MCF-7 human breast cancer line (European Collection of Cell Culture) were grown in MEM/EBSS supplemented with 10% FCS, 1mM sodium pyruvate, 2mM L-glutamine, 1% non-essential amino acid and 5% penicillin (Tamro). […] Cells of the BT474 human breast cancer line (American Type Culture Collection) were grown in DMEM supplemented with 10% FCS, 1mM sodium pyruvate, and 5% penicillin (Tamro).
(§2) The MTSs were incubated for 50 min at 37°C with 0.5 ml medium per well containing 3MBq [^18F]FDG[21], and then washed 3x5 min with medium (1 ml/well).
To ensure the physiological validity of [^18F]FDG uptake in MTS, a number of basic experiments were performed: • Temperature dependence of [^18F]FDG uptake. The [^18F]FDG uptake experiments were performed with two different incubation temperatures: 4°C and 37°C. • Competition Experiment. Glucose concentration in the growing culture medium was 5 mM. To perform the competition experiment, unlabeled extra glucose was diluted in the growing culture medium with a concentration of 0mM (for the control group), 5mM, 10mM and 20mM. Culture medium was replaced by glucose/[^18F]FDG-containing culture medium. After 50 min incubation the [^18F]FDG uptake was measured. • Inhibition Experiment. The MTSs were pre-incubated with four different concentrations of an inhibitor of glucose transport, Cytochalasin-B; 0µM (for control group), 10µM, 25µM and 50µM followed by 50 min [^18F]FDG incubation. • Insulin-mediated [^18F]FDG uptake. The MTSs were pre-incubated with or without (control group) 10µM insulin followed by 50 min [^18F]FDG incubation.
It is noticeable that the basic experiments were performed only on MTSs of MCF-7 cell line. In each experimental set-up six MTSs in one 24-well plate were referred to as one group and the experiments were repeated three times.

The test system of assay [1] is MCF-7 human breast cancer line. Nature of the assay: PET tracer uptake in multicellular tumor spheroids (MTS) after anticancer treatment. It counts as cell-based. Particulars: MCF-7 MTSs; 1 and 10µM; 3 and 5 days of treatment; normalized to control. Here is the method:
Cells of the MCF-7 human breast cancer line (European Collection of Cell Culture) were grown in MEM/EBSS supplemented with 10% FCS, 1mM sodium pyruvate, 2mM L-glutamine, 1% non-essential amino acid and 5% penicillin (Tamro).
After 1 h the medium was renewed.
In each experimental set-up four MTSs in one 24-well plate were referred to as one group. The groups included control (without treatment agent) and five different treatments with same concentration.
The response to each anticancer treatment was evaluated by measurement of the tracer uptake and total volume of the MTSs after 3 and 5 days of treatment.
Images of MTSs were recorded using a Nikon Colorpix 4500 camera mounted on an inverted Zeiss microscope before Tracer incubation. The acquired data were analyzed by SASDM.
To monitor the effect of each anti-cancer treatment five established PET-tracers; [1-^11C]Acetate, [^11C]Choline, [^11C]Methionine, [^18F]3'-Deoxy-3'-fluorthymifine and 2-[^18F]Fluor-2-deoxyglucose were utilized.
The aggregates were incubated for 30 min (for ^18F-labled tracers) and 50 min (for ^11C-labled tracers) at 37°C with 0.5 ml medium per well containing 3MBq Tracer, and then washed 3x5 min (for ^18F-labled tracers) and 3x3 min (for ^11C-labled tracers) with medium (1 ml/well).
The Tracer-uptake in MTS was defined as: Total uptake = (Act conc.(Bq/ml)of MTS)/(Act conc.(Bq/ml)of reference) [formula]
Each experiment set-up was repeated three times.

Assay [2] deals with MCF-7 human breast cancer line. Kind of assay: [18F]FDG uptake per viable volume of MTS after anticancer treatment (MCF-7). It counts as cell-based. The note with it: MCF-7 MTSs; for [^18F]FDG uptake per viable volume: highest dose of 1 µM. The procedure:
as §1, §2
For the MCF-7 cell line, each group included 6 replicates and the experiments were repeated twice.
The response to each anticancer treatment was evaluated by measurement of the [^18F]FDG uptake and viable volume of the MTSs after 2 and 3 days of treatment.

Assay [3] concerns BT474 human breast cancer line. Kind of assay: [18F]FDG uptake per viable volume of MTS after anticancer treatment (BT474). Particulars: BT474 MTSs.

“Also recorded” adds a separate entry of the source. Read-outs that look alike come from different tables or passages of the source.

As for `C=C1[C@@H](C)[C@H]2[C@H](Cc3ccccc3)NC(=O)[C@]23OC(=O)/C=C/[C@H](O)CCC[C@@H](C)C/C=C/[C@H]3[C@@H]1O` [Cytochalasin B], in the assay on MTSs of MCF-7 cell line (glucose-transport inhibitor added to incubation medium, 10-50µM), the “[^18F]FDG uptake” value is “significantly decreased”. Also, the IC50 in the assay on MTSs of MCF-7 cell line (pre-incubation 0, 10, 25, 50µM, then 50 min [18F]FDG incubation, read-out: 50% inhibition of [^18F]FDG uptake) turned out to be 0.012 mM.
Turning to `CC(=O)O[C@@]12CO[C@@H]1C[C@H](O)[C@@]1(C)C(=O)[C@H](O)C3=C(C)[C@@H](OC(=O)[C@H](O)[C@@H](NC(=O)OC(C)(C)C)c4ccccc4)C[C@@](O)([C@@H](OC(=O)c4ccccc4)[C@H]21)C3(C)C` [Docetaxel], in assay [1], the CHO-uptake result is recorded as “increase”, the FLT-uptake entry is recorded as “decreased” and the MET-uptake entry is given as “increase”.
With `COc1cccc2c1C(=O)c1c(O)c3c(c(O)c1C2=O)C[C@@](O)(C(=O)CO)C[C@@H]3O[C@H]1C[C@H](N)[C@H](O)[C@H](C)O1` [Doxorubicin], the “reduction of [^18F]FDG uptake per viable volume” value in assay [2] (at the highest dose) is on record as 25%. In addition, the “[^18F]FDG uptake per viable volume” value in assay [2] is listed as “decreased”. In addition, the “[^18F]FDG uptake per viable volume” value in assay [3] (at the highest dose) is on record as “reduced; also recorded: decreased”. Moreover, in assay [1], the ACE-uptake result is “less decrease”, the FDG-uptake result is on record as “less decrease” and the FLT-uptake entry was “considerable FLT-reduction; also recorded: decreased”.
Regarding `Cc1ccc(NC(=O)c2ccc(CN3CCN(C)CC3)cc2)cc1Nc1nccc(-c2cccnc2)n1` [Imatinib], in assay [1], the CHO-uptake entry is “decrease” and the FLT-uptake result is “increase”.
For the compound `CC(=O)O[C@H]1C(=O)[C@@]2(C)[C@H]([C@H](OC(=O)c3ccccc3)[C@]3(O)C[C@H](OC(=O)[C@H](O)[C@@H](NC(=O)c4ccccc4)c4ccccc4)C(C)=C1C3(C)C)[C@]1(OC(C)=O)CO[C@@H]1C[C@@H]2O` [Paclitaxel], the “[^18F]FDG uptake per viable volume (glucose transport)” value in assay [2] (10nM, 100nM, 1µM, 2 and 3 days, overall) is reported as “more moderate”. In addition, the “glucose transport per viable volume” value in assay [3] (lowest dose and shorter treatment time) is listed as “reduced”. Besides, in assay [1], the ACE-uptake entry is “approximately as non-treated MTSs”, the FDG-uptake entry is reported as “approximately as non-treated MTSs” and the FLT-uptake result is reported as “significant decrease; also recorded: decreased”.
As for `CC/C(=C(\c1ccccc1)c1ccc(OCCN(C)C)cc1)c1ccccc1` [Tamoxifen], the “[^18F]FDG uptake per viable volume” value in assay [2] is reported as “reduced”. Also, in assay [1], the ACE-uptake result is “increase”, the FLT-uptake result was “decreased” and the MET-uptake result is recorded as “decrease”.
Regarding `OC[C@H]1OC(O)[C@H](O)[C@@H](O)[C@@H]1O` (stereo partly drawn) [glucose], the IC50 with MTSs of MCF-7 cell line (Homo sapiens, MCF7, 50 min, unlabeled extra glucose 0, 5, 10, 20mM added to medium (5 mM glucose), 50 min incubation, read-out: concentration inducing a 50% reduction of [^18F]FDG uptake compared to control) turned out to be 10 mM. For the same compound, the “[^18F]FDG uptake in MTSs” value in the assay on MTSs of MCF-7 cell line (increasing concentration of glucose added to incubation medium) is “gradually decreased”.

Values taken from patent EP1861713B1, “METHOD OF SCREENING PET TRACERS FOR EARLY CANCER THEREAPY MONITORING” (GE Healthcare Limited, priority 2005, dated 2006).
